Test results: US20210181180A1, “METHOD FOR IDENTIFYING MALODOUR COUNTERACTANTS” (TAKASAGO INTERNATIONAL CORPORATION, priority 2016, published 2021)

Target: T1, OR4E2 (Homo sapiens, UniProt Q8NGC2, Q234R/V118M)
T1 construct: expressed in transfected cells; host or cells: HEK293T cells expressing hRTP1s, transiently transfected with pcDNA5-OR4E2 and pNL(NlucP/CRE/Hygro)
T1 sequence (Q8NGC2 1-313 V118M/Q234R): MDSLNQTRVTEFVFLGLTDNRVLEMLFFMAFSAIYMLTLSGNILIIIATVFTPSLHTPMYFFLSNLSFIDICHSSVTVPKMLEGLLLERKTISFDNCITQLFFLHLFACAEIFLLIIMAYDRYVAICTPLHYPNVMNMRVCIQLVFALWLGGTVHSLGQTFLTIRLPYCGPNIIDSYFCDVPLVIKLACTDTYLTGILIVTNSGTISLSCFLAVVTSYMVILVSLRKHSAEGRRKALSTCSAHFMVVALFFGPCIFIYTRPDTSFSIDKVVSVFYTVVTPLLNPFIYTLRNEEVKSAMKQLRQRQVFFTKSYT
Experiment: OR4E2 CRE-NanoLuc luciferase reporter assay in transiently transfected HEK293T cells
Format: cell-based
Details: for response of OR4E2 to increasing concentrations of sulphur odorant (OR4E2 activation): seven concentrations 3-300 μM, 4 hours stimulation, luciferase activity, FIGS. 1A and 1B
Description: The experiments were performed using HEK293T cells (available e.g. from GE Healthcare) […] expressing the auxiliary protein hRTP1s, essential for efficient receptor trafficking to the plasma membrane (NPL 10, NPL 11; and NPL 12). The cell line was maintained in Dulbecco's modified Eagle Medium (DMEM, Euroclone) supplemented with 10% FBS (Fetal Bovine Serum, Euroclone cat. ECS0180L), 1% Penicillin/Streptomycin (Euroclone cat. B3001D), 50 μg/mL G418, […], and 10 μg/mL Zeocin.
The cDNA for OR4E2 was generated by custom gene synthesis (LifeTechnologies). The receptor DNA was then subcloned in frame 3′ from a transmembrane, localization epitope into a pcDNA5 expression vector (NPL 13). The correct identity of the receptor was checked by automated sequencing.
All sulphur odorants were prepared as 100 mM stock solutions using DMSO as a solvent and stored at −20″C. Copper(II) sulfate was prepared as an aqueous 30 mM stock solution. […]
The cDNA for the OR4E2 receptor was co-transfected with pNL(NlucP/CRE/Hygro) (Promega). […] The enzyme is about 100-fold brighter than either firefly (Photinus pyralis) or Renilla reniformis luciferase using a novel substrate, furimazine, to produce high intensity, glow-type luminescence. […]
24 hours post-transfection the medium was removed from the transfected cells and 30 μL of Tyrode's buffer containing the diluted sulphur odorant were added over 4 hours at 37° C. The cells were then transferred into an automated fluorometric imaging plate reader (FLIPR Tetra (registered trademark), Molecular Devices). […]
The data obtained from different well replicates (n=4) were analysed with Excel, ScreenWorks, and SigmaPiot 11, The responses of the receptor to the sulphur odorants were divided by the mean responses of the receptor towards Tyrode's buffer (fold of change: FOC). The mean and standard deviation of the resulting FOC values were calculated and plotted in vertical bar charts or concentration-response curves fitted by the SigmaPlot 11 software. […]

SMILES	OR4E2 activator (used at 300 μM as activating sulphur odorant in Example 2)	response of OR4E2 to increasing concentrations of sulphur odorant (OR4E2 activation)
CSCSC [2,4-dithiapentane]	OR4E2 activator	–
CC(C)(S)CCO [3-mercapto-3-methylbutanol]	–	positive effect
C=CCSSSCC=C [diallyl trisulfide]	–	positive effect
